# Where two headings read alike, the source gives them in different places.
# Tested on: α7 integrin promoter
# Assay: muscle cell-based assay: α7βgal+/− myoblasts/myotubes, LacZ reporter, β-galactosidase cleavage of FDG
# Parameters: species or system mouse
# Method: An α7 integrin null mouse was produced in which exon 1 of the gene encoding the α7 integrin was replaced by the LacZ reporter. In these mice, all the transcriptional regulatory elements of the α7 integrin promoter were retained, allowing β-galactosidase to report expression of 7 integrin. A primary myoblast cell line (designated α7βgal^+/−) isolated from 10 day old α7^+/− pups were analyzed for the ability of β-galactosidase to report α7 integrin expression. α7βgal^+/− myoblasts were differentiated and subjected to X-gal staining and western analysis (FIGS. 1A and 1B).
# The activity of the α7 integrin promoter was measured by β-galactosidase cleavage of the non-fluorescent compound fluorescein di-β-D-galactopyranoside (FDG) to fluorescein. This assay was used to screen compound libraries to identify molecules that up-regulate α7 integrin expression in muscle.
# Also evaluated was the effect of various isoforms of laminin and the ligand for α7β1 integrin on integrin expression. Positive hits were subjected to dose-response analysis, western analysis and a myostatin counterscreen (a negative regulator of muscle growth).
# [1] = Mus musculus; Table 12; log of AC50, given with negative sign; unit of AC50 not given; read-out: Fit Log AC50 (converted)
# [2] = Mus musculus; read-out: Max Response [%]
# [3] = Table 12; fitted activity at zero concentration
# [4] = Table 12 Compound data; concentration-response curve fit
SMILES,AC50 [1] [µM],Emax [2] [%],Fit HillSlope (Table 12; curve fit),Fit Zero Activity [%] [3] [%],Fit Curve Class (Table 12; key not given),Score [4],Activity at 38.30 μM [%] ** (38.30 μM) [%],Fit Infinite Activity [%] (Table 12; fitted activity at infinite concentration),Activity at 1.530 μM [%] ** (1.530 μM) [%],Activity at 0.307 μM [%] ** (0.307 μM) [%],Curve Description,Fit Curve Class,Fit HillSlope,Fit Zero Activity [%],Score,"AC50 (Mus musculus, read-out: Fit Log AC50 (converted)) [µM]","Emax (Mus musculus, read-out: Max Response [%]) [%]"
CCc1ccc(N(C(=O)c2snc(C(N)=O)c2N)C(C(=O)NC2CCCC2)c2ccco2)cc1 (stereo not drawn) [Compound 17],2.51,67.6,1.2475,−24.7641,1.1,84,–,–,–,–,–,–,–,–,–,–,–
COC(=O)C(=O)C/C(=N/Nc1ncnc2ccccc12)c1ccc(Cl)cc1 [Compound 18],10,–,4.9549,8.7984,2.1,84,1767.43,1760.36,–,–,–,–,–,–,–,–,–
Cc1cc(NC(=O)c2ccc(Cl)cc2Cl)no1 [Compound 19],1.41,52.1,1.3437,−28.8963,1.1,84,–,–,–,–,–,–,–,–,–,–,–
CCOC(=O)Cc1csc(NC(=S)NC(=O)c2cc(OC)c(OC)c(OC)c2)n1 [Compound 20],3.55,82.9,2.3031,−17.7204,1.1,84,–,–,–,–,–,–,–,–,–,–,–
CC(C)CC1NC(=O)N(CC(=O)N2c3ccccc3NC(=O)C2(C)C)C1=O (stereo not drawn) [Compound 21],5.62,93.3,4.4495,1.1731,1.1,84,–,–,0,–,–,–,–,–,–,–,–
COCCSc1ccccc1C(=O)Nc1cc(C)cc(C)c1 [Compound 22],4.47,82.9,4.9549,−0.2899,1.1,84,–,–,0,0,–,–,–,–,–,–,–
O=c1oc2c(-c3cccc(F)c3)cc(O)cc2s1 [Compound 23],3.98,98.9,2.9023,13.3122,1.1,84,–,–,–,–,–,–,–,–,–,–,–
Cc1ccc(C2Nc3cccc4cccc(c34)N2)s1 [Compound 24],3.16,81.3,2.1211,5.7274,1.1,84,–,–,–,–,–,–,–,–,–,–,–
COc1cc(=O)n(C)c2ccccc12 [Compound 25],2.24,63,1.6604,−18.7854,1.1,84,–,–,–,–,–,–,–,–,–,–,–
CCOC(=O)c1sc(=N)n(-c2ccc(OC)cc2)c1C [Compound 26],2,56.1,1.1,−36.1807,1.1,84,–,–,–,–,–,–,–,–,–,–,–
Cc1ccc(OCC(=O)N2CCN(S(=O)(=O)c3ccc4c(c3)OCCO4)CC2)c(C)c1 [Compound 27],2,53.8,2.2526,−26.8995,1.1,83,–,–,–,–,–,–,–,–,–,–,–
CC(NC(=O)c1cn(C)c2ccc(S(=O)(=O)N3CCCC3)cc2c1=O)c1ccccc1 (stereo not drawn) [Compound 28],2.82,54.7,2.5334,−36.6914,1.1,83,–,–,–,–,–,–,–,–,–,–,–
Cc1cc(NC(=O)CCC(=O)N(Cc2cccnc2)C(C(=O)NC(C)(C)C)c2ccccc2Cl)no1 (stereo not drawn) [Compound 29],3.98,54.9,1.7885,−25.4387,1.1,83,–,–,–,–,–,–,–,–,–,–,–
COc1cc(/C=C2/C(=N)N3C(SC)=NSC3=NC2=O)ccc1OC(=O)c1ccco1 [Compound 30],3.98,73.4,2.1876,−19.157,1.1,83,–,–,–,–,–,–,–,–,–,–,–
COc1ccccc1CNc1cc(C)ccn1 [Compound 31],2.51,62.3,1.9673,−24.2621,1.1,83,–,–,–,–,–,–,–,–,–,–,–
Cc1nn(C(C)(C)C)c(C)c1/C=N/OC(=O)Nc1ccc(Cl)c(Cl)c1 [Compound 32],–,–,–,–,–,–,–,–,–,–,Complete,1.1,2.1211,−28.5623,83,2.82,59.8
CCOC(=O)C1CCCN(C(=O)CNS(=O)(=O)c2ccc(Br)s2)C1 (stereo not drawn) [Compound 33],2,31.1,1.1,−50.1655,1.1,82,–,–,–,–,–,–,–,–,–,–,–
CCCCNC(=O)CSc1nnc(Cc2ccc(Cl)c(Cl)c2)c(O)n1 [Compound 34],1.41,75.4,1.8851,5.9015,1.2,65,–,–,–,–,–,–,–,–,–,–,–
O=Cc1ccc(C(=O)OCC(=O)N2CCCC2)cc1 [Compound 35],2.51,71.8,3.132,−0.1751,1.2,64,–,–,–,0,–,–,–,–,–,–,–
CC(C)/N=C(\S)NN=C1CCCCCCCCCCC1 [Compound 36],3.16,78.6,1.4163,5.5,1.2,64,–,–,–,–,–,–,–,–,–,–,–
COc1ccc(S(=O)(=O)N(NC2=NS(=O)(=O)c3ccccc32)C(=O)C(C)C)cc1 [Compound 37],2.51,72.9,2.4064,−2.5935,1.2,64,–,–,–,–,–,–,–,–,–,–,–
C/C(CC(=O)Nc1ccc(Cl)c(C(F)(F)F)c1)=N\NC(=O)c1cnccn1 [Compound 38],4.47,72.7,4.9549,−2.0156,1.2,63,–,–,–,–,–,–,–,–,–,–,–
Cc1ccc(-c2onc3ccc(C(=O)/C=C/N(C)C)cc23)cc1 [Compound 39],3.55,69.1,1.7529,−9.0026,1.2,63,–,–,–,–,–,–,–,–,–,–,–
Cc1cccn2c(=O)c3cc(C(=O)NC4CCCCC4)n(C)c3nc12 [Compound 40],14.1,427,4.5045,−3.212,2.1,48,–,–,–,–,–,–,–,–,–,–,–
COc1ccc(Cl)cc1NC(=O)CC(=O)Nc1cc(Cl)ccc1OC [Compound 41],14.1,453,4.5045,8.8874,2.1,48,–,–,–,–,–,–,–,–,–,–,–

# Source: patent publication US10028992B2, “Methods of treating muscular dystrophy” (BOARD OF REGENTS OF THE NEVADA SYSTEM OF HIGHER EDUCATION …, priority 2012, dated 2018)
